Assay results: US6723531B2, “Method for modulating expression of exogenous genes in mammalian systems, and products related thereto” (The Salk Institute for Biological Studies, priority 1996, dated 2004)
“Also recorded” adds a separate entry of the source.

Assays:
[1] = target: T1, ecdysone receptor (EcR)/USP (Drosophila melanogaster, UniProt P34021); assay: Transient transfection reporter assay in CV-1 cells, ecdysone receptor with USP; type: cell-based; settings: 1 μM muristerone A, unmodified ecdysone receptor
T1 construct: expressed in transfected cells; host or cells: CV-1 cells
T1 sequence (P34021 1-878): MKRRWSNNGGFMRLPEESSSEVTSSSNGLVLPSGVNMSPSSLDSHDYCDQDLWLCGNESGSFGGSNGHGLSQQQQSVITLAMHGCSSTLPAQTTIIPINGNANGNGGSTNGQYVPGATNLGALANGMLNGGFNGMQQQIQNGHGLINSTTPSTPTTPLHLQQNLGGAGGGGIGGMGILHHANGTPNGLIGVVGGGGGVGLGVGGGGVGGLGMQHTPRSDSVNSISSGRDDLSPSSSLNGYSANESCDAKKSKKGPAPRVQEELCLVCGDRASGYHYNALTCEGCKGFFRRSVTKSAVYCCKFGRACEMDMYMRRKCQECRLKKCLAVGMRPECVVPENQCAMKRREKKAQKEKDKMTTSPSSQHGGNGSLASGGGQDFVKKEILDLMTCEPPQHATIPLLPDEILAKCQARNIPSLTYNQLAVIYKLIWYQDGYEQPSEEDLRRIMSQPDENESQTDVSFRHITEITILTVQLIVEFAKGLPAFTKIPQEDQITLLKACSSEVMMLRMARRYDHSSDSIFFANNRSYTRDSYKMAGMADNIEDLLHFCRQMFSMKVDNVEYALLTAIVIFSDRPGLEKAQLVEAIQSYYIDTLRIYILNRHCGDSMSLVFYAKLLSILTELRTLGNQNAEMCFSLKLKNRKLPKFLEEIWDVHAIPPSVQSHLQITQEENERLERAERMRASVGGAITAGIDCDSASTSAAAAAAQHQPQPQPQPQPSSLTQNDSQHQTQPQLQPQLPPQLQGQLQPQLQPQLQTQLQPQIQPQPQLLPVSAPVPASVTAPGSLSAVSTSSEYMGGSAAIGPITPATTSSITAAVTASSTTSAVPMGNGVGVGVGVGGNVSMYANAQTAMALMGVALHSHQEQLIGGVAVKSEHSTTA
T1 sequence (P20153 1-508 partner): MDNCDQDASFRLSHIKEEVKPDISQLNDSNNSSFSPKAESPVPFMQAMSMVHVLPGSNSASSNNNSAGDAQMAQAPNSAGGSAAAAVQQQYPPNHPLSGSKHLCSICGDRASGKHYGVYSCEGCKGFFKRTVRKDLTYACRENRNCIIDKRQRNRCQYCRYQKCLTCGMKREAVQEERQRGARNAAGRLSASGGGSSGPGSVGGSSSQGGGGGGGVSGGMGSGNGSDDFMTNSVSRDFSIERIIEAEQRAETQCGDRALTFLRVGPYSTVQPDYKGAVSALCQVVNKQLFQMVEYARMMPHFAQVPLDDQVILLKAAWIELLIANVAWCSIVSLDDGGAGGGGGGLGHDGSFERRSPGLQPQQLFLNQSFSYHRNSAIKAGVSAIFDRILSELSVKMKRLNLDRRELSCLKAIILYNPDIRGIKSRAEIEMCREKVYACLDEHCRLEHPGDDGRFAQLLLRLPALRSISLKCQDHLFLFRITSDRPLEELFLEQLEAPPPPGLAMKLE
Experimental: CV-1 cells were maintained in DMEM supplemented with 10%. Fetal Bovine Serum. Transient transfections were performed using DOTAP transfection reagent (Boehringer-Mannheim). Transfections using β-galactosidase as the reporter were assayed either by Galactolight luminescent assay (Tropix, Bedford, Mass.) or by standard liquid ONPG assay (Sigma, St. Louis, Mo.). The values were normalized by co-transfection of CMX-luciferase. Transfections using luciferase as the reporter were assayed by standard techniques using luciferin and ATP. These values were normalized by co-transfection of CMX-β-galactosidase. Hormone treated cells were treated with ethanol, 50 μM Juvenile Hormone III (Sigma), 1 μM muristerone A (Zambon, Bresso, IT), or 1 μM dexamethasone (Sigma) unless otherwise noted.
To maximize the sensitivity of the invention ecdysone inducible system, modifications of the ecdysone receptor were made. The N-terminal transactivation domain of the ecdysone receptor was replaced by the corresponding domain of the glucocorticoid receptor (GR), resulting in the modified ecdysone receptor GEcR (See FIG. 1D). CV-1 cells were transfected with the plasmid CMX-GEcR encoding the modified ecdysone receptor as discussed above. […]

[2] = test system: N13 cells (293 cells with VpEcR, RXR and ecdysone inducible reporter); assay: X-gal staining of stable cell line N13; type: cell-based; settings: 24 hours of treatment with 1 μM muristerone; 3 hours of staining
Experimental: Stable cell lines were generated containing the modified ecdysone receptor VpEcR, a heterodimeric partner (RXR), and an ecdysone inducible reporter (FIG. 2). 293 cells were transfected with the following linearized plasmids, pRC-ESHβ, EcREx5-ΔMTV-Luc, CMX-VpEcR, and CMX-hRXRa. The following day, the cells were split 1:10 and were allowed to recover one day prior to selection with 1 mg/ml G418 (GIBCO). After 14 days of selection, 14 individual clones were isolated and grown separately in the presence of 0.5 mg/ml G418.
One of these cell lines, N13, was grown in the presence or absence of 1 μM muristerone for 20 hours. Cell lysates were then assayed for β-galactosidase and luciferase activities as described in Example 1. X-gal staining was performed on the stable cell lines. Cells were fixed briefly with 10% formaldehyde in PBS and then stained with X-Gal (Molecular Probes, Eugene, Oreg.) for 2 to 6 hours. After 24 hours of treatment with 1 μM muristerone, 100% of the cells turned dark blue after 3 hours of staining. Thus, mammalian cells containing the modified ecdysone receptor VpEcR, a heterodimeric partner (RXR), and a reporter gene construct regulated by a modified ecdysone response element, function to efficiently express an exogenous gene in response to a ligand, e.g., ecdysone.

[3] = test system: N13 cells (293 cells with VpEcR, RXR and ecdysone inducible reporter); assay: Dose-response assay in N13 cells (β-galactosidase and luciferase reporters); type: cell-based; settings: 36 hours
Experimental: (§1) N13 cells were grown with varying concentrations of muristerone for 36 hours and then assayed for β-galactosidase activity (open squares) by standard ONPG assay or for luciferase activity (closed circles). […] N13 cells were grown in separate wells in the presence of 1 μM muristerone, harvested at varying times, and assayed for luciferase activity as described in Example 3.
FIG. 5 compares the dose-dependent activation of N13 cells with muristerone (X) and ponasterone A (open circles).
A dose-response assay was conducted by growing N13 cells with varying concentrations of muristerone for 36 hours and then assaying for β-galactosidase activity (using the well-known ONPG assay), or the cells were assayed for luciferase activity. […] One-hundred fold induction was achieved by muristerone concentrations as low as 100 nM (FIG. 3A).
A dose-response assay was conducted as described in Example 3, by growing N13 cells with varying concentrations of muristerone or ponasterone A for 36 hours and then assaying for β-galactosidase activity (using the well-known ONPG assay), or the cells were assayed for luciferase activity.

[4] = test system: N13 cells (293 cells with VpEcR, RXR and ecdysone inducible reporter); assay: Kinetics of induction in N13 cells (luciferase activity); type: cell-based; settings: 1 μM muristerone
Experimental: as §1
Finally, the kinetics of muristerone mediated induction was measured. N13 cells were grown in separate wells in the presence of 1 μM muristerone, harvested at varying times, and assayed for luciferase activity. Inductions of 100-fold in 3 hrs., 1000 fold in 8 hrs., and maximal effects of 20,000 fold after 20 hours of treatment were observed (FIG. 3B).

adult mice = assay: Toxicity study in adult mice; type: in vivo; settings: intraperitoneal, 20 mg in sesame oil, observed approximately two months
Experimental: In order to use muristerone as a potential hormone in mice, its toxicity and bioavailability was examined. For toxicity studies, adult mice were injected intraperitonealy with 20 mg of muristerone A suspended in sesame oil. The mice were then observed for approximately two months. […] In addition to the inert qualities of muristerone (an ecdysone), overexpression of VpEcR and RXR appears not to be toxic.

pregnant mice = assay: Teratogenic study in pregnant mice; type: in vivo; settings: 20 mg in sesame oil, mother and pups observed three months
[5] = test system: CV-1 cells transfected with CMX-GEcR, CMX-hRXRa, and EcREx5-DMTV-Luc; assay: Bioavailability study: serum of injected mice tested on transfected CV-1 cells; type: in vivo
Experimental: For muristerone bioavailability studies, adult mice were injected intraperitoneally with sesame oil with or without […] of muristerone, and were subsequently sacrificed for serum collection. After twelve hours, blood was drawn from the mice, and the serum was isolated by brief centrifugation of the whole blood. In order to conduct transfection assays to test for muristerone activity, serum from sesame oil injected mice was divided, and half was supplemented with muristerone to a final concentration of 10 μM. The three batches of mouse serum were diluted 1:10 in DMEM and placed onto CV-1 cells transfected with CMX-GEcR, CMX-hRXRa, and EcREx5-DMTV-Luc.

[6] = test system: ecdysone inducible promoter (CD3-VpEcR; CD3-RXR; ESHβ); assay: Northern blot of receptor/reporter double transgenic mice; type: in vivo; settings: 10 mg intraperitoneal, RNA 48 hours after treatment, thymus
Experimental: To produce transgenic mice, the following DNA constructs were prepared and subsequently injected into fertilized eggs: CD3-VpEcR, CD3-RXR, ESHβ (Lee et al., J. Exp. Med. 175:1013-1025 (1992)). Two separate lines of transgenic mice were generated harboring either an ecdysone inducible reporter, ESHβ, or a T-cell specific expression construct of VpEcR and RXR, respectively. The former are referred to as reporter mice, the latter are referred to as receptor mice, and double transgenic mice are referred to as receptor/reporter mice. Constructs CD3-VpEcR and CD3-RXR were mixed and coinjected, while ESHB was injected alone. Primary genotyping was performed by Southern blot analysis and the transmission of transgenic mice was monitored by dot blot analysis. Receptor mice were analyzed for VpEcR and RXR expression by Northern blot analysis of RNA collected from these mice. For Northern blot analysis, 15 μg of total RNA obtained from the thymus, and various tissues as a control, was run on a denaturing gel and blotted onto a nitrocellulose membrane. The blot was probed with a radiolabeled β-gal-specific probe and exposed on film for 2 days. These receptor mice were healthy, fertile, and appeared normal by visual inspection. In addition, the transgene was transferred to the offspring as expected by Mendelian genetics. […]

CC(C)CC[C@@H](O)[C@](C)(O)[C@H]1CC[C@@]2(O)C3=CC(=O)[C@]4(O)C[C@@H](O)[C@@H](O)C[C@]4(C)[C@H]3[C@H](O)C[C@]12C [muristerone A]
muristerone responsiveness (fold induction) [1]: 3 fold | cells turned dark blue (X-gal staining) [2]: 100% | fold induction ([3]; concentrations as low as 100 nM): One-hundred | inducibility of β-galactosidase and luciferase reporters ([3]; final concentration 10 μM): ~3 orders of magnitude | induction of luciferase activity ([4]; 3 hrs): 100 fold | induction of luciferase activity ([4]; 8 hrs): 1000 fold | maximal induction of luciferase activity ([4]; after 20 hours of treatment): 20,000 fold | toxicity (adult mice): neither toxic | teratogenicity (pregnant mice): neither toxic, teratogenic | luciferase activity of serum from treated mice ([5]; intraperitoneal 10 μmg in sesame oil, serum after twelve hours, diluted 1:10 in DMEM): comparable to that seen from untreated mouse serum supplemented with 1 μM muristerone | activity when injected into mice ([5]; mice, intraperitoneal): maintains its activity | inactivation or blunting of activity by serum proteins ([5]; mouse serum): nor inactivated by serum binding proteins; also recorded: little or no blunting of activity | induction from an ecdysone inducible promoter (Northern blot) [6]: significant induction
